# In patent US12377104B1, “Methods for treating a fatty liver disease” (Madrigal Pharmaceuticals, Inc., priority 2024, dated 2025):
# Test system: NASH patients
# Test: MAESTRO-NASH: efficacy by baseline body weight and BMI
# Type: in vivo, human
# Conditions: for ≥30% Reduction in MRI-PDFF at Week 52, Assessment (%) / ≥120% Increase in SHBG at Week 52, Assessment (%): post hoc
# Method: In the MAESTRO-NASH study, randomization to 80 mg and 100 mg doses was equal across all body weights. Analyses were conducted to provide additional evidence of a relationship between resmetirom dose, baseline body weight and body mass index (BMI), and safety/efficacy readouts. […] The only variable that determined exposure to resmetirom in the NASH population was body weight. […] Study median body weight was 100 kg. […] et al. (2024). CAP was stable over time, both doses showing a similar durable response (FIG. 30B).
# [1] = Week 52 Paired Biopsies, 80 mg, >100 kg
# [2] = Week 52 Paired Biopsies, 80 mg, ≤100 kg
# [3] = Week 52 Paired Biopsies, 100 mg, >100 kg
# [4] = Week 52 Paired Biopsies, 100 mg, ≤100 kg
# [5] = Week 52 Primary Population, 80 mg, >100 kg
# [6] = Week 52 Primary Population, 80 mg, ≤100 kg
# [7] = Week 52 Primary Population, 100 mg, >100 kg
# [8] = Week 52 Primary Population, 100 mg, ≤100 kg
smiles,measurement,setting,value
"CC(C)c1cc(Oc2c(Cl)cc(-n3nc(C#N)c(=O)[nH]c3=O)cc2Cl)n[nH]c1=O [Resmetirom, 2-(3,5-dichloro-4-((5-isopropyl-6-oxo-1,6-dihydropyridazin-3-yl)oxy)phenyl)-3,5-dioxo-2,3,4,5-tetrahydro-1,2,4-triazine-6-carbonitrile]",Week 52 Paired Biopsies Consensus Fibrosis Improvement Responder: number,"100 mg, 80-<90 kg",13
same,Week 52 Paired Biopsies Consensus Fibrosis Improvement Responder: percentage (in parentheses),"100 mg, 80-<90 kg",(31.7)
same,Week 52 Paired Biopsies Consensus NASH Resolution Responder: number,"100 mg, 80-<90 kg",16
same,Week 52 Paired Biopsies Consensus NASH Resolution Responder: percentage (in parentheses),"100 mg, 80-<90 kg",(39.0)
same,≥30% reduction in MRI-PDFF at Week 52: number of patients,"100 mg, 80-<90 kg",30
same,≥30% reduction in MRI-PDFF at Week 52: percentage of patients (in parentheses),"100 mg, 80-<90 kg",(76.9)
same,≥120% increase in SHBG at Week 52: number of patients,"100 mg, 80-<90 kg",27
same,≥120% increase in SHBG at Week 52: percentage of patients (in parentheses),"100 mg, 80-<90 kg",(62.8)
same,Discontinued Study Prior to Week 52: number,"100 mg, 90-<100 kg",15
same,Discontinued Study Prior to Week 52: percentage (in parentheses),"100 mg, 90-<100 kg",(25.4)
same,Week 52 MITT Consensus Fibrosis Improvement Responder: number,"100 mg, 90-<100 kg",12
same,Week 52 MITT Consensus Fibrosis Improvement Responder: percentage (in parentheses),"100 mg, 90-<100 kg",(20.3)
same,Week 52 MITT Consensus NASH Resolution Responder: number,"100 mg, 90-<100 kg",13
same,Week 52 MITT Consensus NASH Resolution Responder: percentage (in parentheses),"100 mg, 90-<100 kg",(22.0)
same,Week 52 Paired Biopsies Consensus Fibrosis Improvement Responder: number,"100 mg, 90-<100 kg",12
same,Week 52 Paired Biopsies Consensus Fibrosis Improvement Responder: percentage (in parentheses),"100 mg, 90-<100 kg",(29.3)
same,Week 52 Paired Biopsies Consensus NASH Resolution Responder: number,"100 mg, 90-<100 kg",13
same,Week 52 Paired Biopsies Consensus NASH Resolution Responder: percentage (in parentheses),"100 mg, 90-<100 kg",(31.7)
same,≥30% reduction in MRI-PDFF at Week 52: number of patients,"100 mg, 90-<100 kg",24
same,≥30% reduction in MRI-PDFF at Week 52: percentage of patients (in parentheses),"100 mg, 90-<100 kg",(70.6)
same,≥120% increase in SHBG at Week 52: number of patients,"100 mg, 90-<100 kg",28
same,≥120% increase in SHBG at Week 52: percentage of patients (in parentheses),"100 mg, 90-<100 kg",(63.6)
same,Discontinued Study Prior to Week 52: number,"100 mg, 100-<110 kg",9
same,Discontinued Study Prior to Week 52: percentage (in parentheses),"100 mg, 100-<110 kg",(17.6)
same,Week 52 MITT Consensus Fibrosis Improvement Responder: number,"100 mg, 100-<110 kg",14
same,Week 52 MITT Consensus Fibrosis Improvement Responder: percentage (in parentheses),"100 mg, 100-<110 kg",(27.5)
same,Week 52 MITT Consensus NASH Resolution Responder: number,"100 mg, 100-<110 kg",16
same,Week 52 MITT Consensus NASH Resolution Responder: percentage (in parentheses),"100 mg, 100-<110 kg",(31.4)
same,Week 52 Paired Biopsies Consensus Fibrosis Improvement Responder: number,"100 mg, 100-<110 kg",14
same,Week 52 Paired Biopsies Consensus Fibrosis Improvement Responder: percentage (in parentheses),"100 mg, 100-<110 kg",(35.0)
same,Week 52 Paired Biopsies Consensus NASH Resolution Responder: number,"100 mg, 100-<110 kg",16
same,Week 52 Paired Biopsies Consensus NASH Resolution Responder: percentage (in parentheses),"100 mg, 100-<110 kg",(40.0)
same,≥30% reduction in MRI-PDFF at Week 52: number of patients,"100 mg, 100-<110 kg",29
same,≥30% reduction in MRI-PDFF at Week 52: percentage of patients (in parentheses),"100 mg, 100-<110 kg",(70.7)
same,≥120% increase in SHBG at Week 52: number of patients,"100 mg, 100-<110 kg",27
same,≥120% increase in SHBG at Week 52: percentage of patients (in parentheses),"100 mg, 100-<110 kg",(62.8)
same,Discontinued Study Prior to Week 52: number,"100 mg, <80 kg",12
same,Discontinued Study Prior to Week 52: percentage (in parentheses),"100 mg, <80 kg",(21.4)
same,Week 52 MITT Consensus Fibrosis Improvement Responder: number,"100 mg, <80 kg",16
same,Week 52 MITT Consensus Fibrosis Improvement Responder: percentage (in parentheses),"100 mg, <80 kg",(28.6)
same,Week 52 MITT Consensus NASH Resolution Responder: number,"100 mg, <80 kg",14
same,Week 52 MITT Consensus NASH Resolution Responder: percentage (in parentheses),"100 mg, <80 kg",(25.0)
same,Week 52 Paired Biopsies Consensus Fibrosis Improvement Responder: number,"100 mg, <80 kg",16
same,Week 52 Paired Biopsies Consensus Fibrosis Improvement Responder: percentage (in parentheses),"100 mg, <80 kg",(40.0)
same,Week 52 Paired Biopsies Consensus NASH Resolution Responder: number,"100 mg, <80 kg",14
same,Week 52 Paired Biopsies Consensus NASH Resolution Responder: percentage (in parentheses),"100 mg, <80 kg",(35.0)
same,≥30% reduction in MRI-PDFF at Week 52: number of patients,"100 mg, <80 kg",24
same,≥30% reduction in MRI-PDFF at Week 52: percentage of patients (in parentheses),"100 mg, <80 kg",(64.9)
same,≥120% increase in SHBG at Week 52: number of patients,"100 mg, <80 kg",30
same,≥120% increase in SHBG at Week 52: percentage of patients (in parentheses),"100 mg, <80 kg",(68.2)
same,"≥30% Reduction in MRI-PDFF at Week 52, Assessment (%)","100 mg, body weight >100 kg",72.5%
same,"≥120% Increase in SHBG at Week 52, Assessment (%)","100 mg, body weight >100 kg",55.0%
same,"≥30% Reduction in MRI-PDFF at Week 52, Assessment (%)","100 mg, body weight ≤100 kg",71.7%
same,"≥120% Increase in SHBG at Week 52, Assessment (%)","100 mg, body weight ≤100 kg",64.2%
same,Discontinued Study Prior to Week 52: number,"100 mg, ≥110 kg",18
same,Discontinued Study Prior to Week 52: percentage (in parentheses),"100 mg, ≥110 kg",(16.7)
same,Week 52 MITT Consensus Fibrosis Improvement Responder: number,"100 mg, ≥110 kg",27
same,Week 52 MITT Consensus Fibrosis Improvement Responder: percentage (in parentheses),"100 mg, ≥110 kg",(25.0)
same,Week 52 MITT Consensus NASH Resolution Responder: number,"100 mg, ≥110 kg",30
same,Week 52 MITT Consensus NASH Resolution Responder: percentage (in parentheses),"100 mg, ≥110 kg",(27.8)
same,Week 52 Paired Biopsies Consensus Fibrosis Improvement Responder: number,"100 mg, ≥110 kg",27
same,Week 52 Paired Biopsies Consensus Fibrosis Improvement Responder: percentage (in parentheses),"100 mg, ≥110 kg",(31.4)
same,Week 52 Paired Biopsies Consensus NASH Resolution Responder: number,"100 mg, ≥110 kg",30
same,Week 52 Paired Biopsies Consensus NASH Resolution Responder: percentage (in parentheses),"100 mg, ≥110 kg",(34.9)
same,≥30% reduction in MRI-PDFF at Week 52: number of patients,"100 mg, ≥110 kg",53
same,≥30% reduction in MRI-PDFF at Week 52: percentage of patients (in parentheses),"100 mg, ≥110 kg",(74.6)
same,≥120% increase in SHBG at Week 52: number of patients,"100 mg, ≥110 kg",45
same,≥120% increase in SHBG at Week 52: percentage of patients (in parentheses),"100 mg, ≥110 kg",(50.6)
same,patients with worsening of VCTE,VCTE responder analyses at 1-3 years,less than 10%
same,"Consensus Fibrosis Improvement, Assessment (%)",[1],22.5%
same,"Consensus NASH Resolution, Assessment (%)",[1],27.0%
same,"Consensus Fibrosis Improvement, Assessment (%)",[2],35.4%
same,"Consensus NASH Resolution, Assessment (%)",[2],32.0%
same,"Consensus Fibrosis Improvement, Assessment (%)",[3],32.5%
same,"Consensus NASH Resolution, Assessment (%)",[3],35.8%
same,"Consensus Fibrosis Improvement, Assessment (%)",[4],33.6%
same,"Consensus NASH Resolution, Assessment (%)",[4],36.0%
same,"Consensus Fibrosis Improvement, Assessment (%)",[5],17.4%
same,"Consensus NASH Resolution, Assessment (%)",[5],20.8%
same,"Consensus Fibrosis Improvement, Assessment (%)",[6],29.2%
same,"Consensus NASH Resolution, Assessment (%)",[6],26.4%
same,"Consensus Fibrosis Improvement, Assessment (%)",[7],25.6%
same,"Consensus NASH Resolution, Assessment (%)",[7],28.2%
same,"Consensus Fibrosis Improvement, Assessment (%)",[8],25.1%
same,"Consensus NASH Resolution, Assessment (%)",[8],26.9%
